The source of these data is patent publication US7544714B2, “Lipid-amino acid conjugates and methods of use” (University of Massachusetts, priority 2004, dated 2009).

For the assay, the system named is 3T3 L1 fibroblasts. Briefly: RT-PCR analysis of adipocyte specific transcripts as secondary test of adipocyte differentiation. It counts as cell-based. The following applies: with 10 μg/ml insulin. Here is the method:
N-arachidonoyl-D-alanine is subjected to the Oil Red O assay, discussed in more detail supra. In the assay, 3T3 L1 fibroblasts are cultured in DMEM supplemented with 10% calf serum. Two days after confluence, cells are treated with 0.1% DMSO (vehicle), 20-100 μM N-arachidonoyl-D-alanine in vehicle, or 1 μM GW347845 (Cobb et al., J. Med. Chem., 41:5055-5069, 1998) in vehicle. Each of the three treatments is administered to the cells with 10 μg/ml of insulin. After seven days of treatment with GW347845 and 10-14 days of treatment with N-arachidonoyl-D-alanine, cells are fixed and stained with Oil Red O. Red staining indicates lipid droplets in the cytoplasm. RT-PCR analysis of expressed genes is performed as a secondary test of adipocyte differentiation. Messenger RNA from fibroblasts is harvested and RT-PCR is performed to amplify adipocyte specific transcripts, e.g., PPARγ2 and aP2, or the transcript of a ubiquitous housekeeping gene, e.g., GAPDH. PCR products are analyzed on 1% agarose gel and stained with ethidium bromide. […] Expression of the housekeeping gene GAPDH is assayed to ensure equal expression in all samples.

[1] abbreviates: 20-100 μM, 10-14 days of treatment.

Consider `CCCCC/C=C\C/C=C\C/C=C\C/C=C\CCCC(=O)N[C@H](C)C(=O)O` [N-arachidonoyl-D-alanine], for which, under setting [1], the “PPARγ2 transcript induction relative to vehicle-treated cells (RT-PCR)” value is “induced significantly” and the “aP2 transcript induction relative to vehicle-treated cells (RT-PCR)” value is listed as “induced significantly”.

On to `COC(=O)c1ccccc1N[C@@H](Cc1ccc(OCCc2nc(-c3ccccc3)oc2C)cc1)C(=O)O` [GW347845], for which, under “1 μM, seven days of treatment”, the “PPARγ2 transcript induction relative to vehicle-treated cells (RT-PCR)” value is given as “induced significantly” and the “aP2 transcript induction relative to vehicle-treated cells (RT-PCR)” value is reported as “induced significantly”.
